Ring closure, isolated yield data for 15 molecules are collected here from article PMC10722513.

This data set is described as follows: Au(I)-catalysed intramolecular Trp C2-H alkynylation: peptide-EBX (4-ethynylbenzoyl bis-CF3-benziodoxole on Lys side chain or N-terminus) + AuCl·Me2S, open flask. Conditions: HFIP, 5.0 mM, 25.0 °C, 0.17 h.

On to `CC(=O)N[C@H](C(=O)N[C@@H](CO)C(=O)N[C@@H](Cc1ccccc1)C(=O)N[C@H]1CCCCNC(=O)c2ccc(cc2)C#Cc2[nH]c3ccccc3c2C[C@@H](C(=O)N[C@@H](C)C(=O)N[C@@H](CC(C)C)C(=O)N[C@@H](CC(C)C)C(=O)N[C@@H](Cc2c[nH]c3ccccc23)C(N)=O)NC(=O)[C@H](Cc2ccc(O)cc2)NC(=O)[C@H](CCC(=O)O)NC1=O)[C@@H](C)O` [Ac-T-S-F-K(EBX)-E-Y-W-A-L-L-W-NH2], for which, where the note is “from CC(=O)N[C@H](C(=O)N[C@@H](CO)C(=O)N[C@@H](Cc1ccccc1)C(=O)N[C@@H](CCCCNC(=O)c1ccc(C#CI2OC(C(F)(F)F)(C(F)(F)F)c3ccccc32)cc1)C(=O)N[C@@H](CCC(=O)O)C(=O)N[C@@H](Cc1ccc(O)cc1)C(=O)N[C@@H](Cc1c[nH]c2ccccc12)C(=O)N[C@@H](C)C(=O)N[C@@H](CC(C)C)C(=O)N[C@@H](CC(C)C)C(=O)N[C@@H](Cc1c[nH]c2ccccc12)C(N)=O)[C@@H](C)O, 25-membered ring”, the ring closure, isolated yield was found to be 45%.

As for `C[C@@H]1NC(=O)[C@H](CC(=O)O)NC(=O)c2ccc(cc2)C#Cc2c(c3ccccc3n2C)C[C@@H](C(N)=O)NC(=O)[C@H](CCC(=O)O)NC(=O)CNC(=O)[C@H]([C@@H](C)O)NC(=O)[C@H](CCC(=O)O)NC1=O` [EBX-D-A-E-T-G-E-W(1-Me)-NH2], the ring closure, isolated yield (from C[C@H](NC(=O)[C@H](CC(=O)O)NC(=O)c1ccc(C#CI2OC(C(F)(F)F)(C(F)(F)F)c3ccccc32)cc1)C(=O)N[C@@H](CCC(=O)O)C(=O)N[C@H](C(=O)NCC(=O)N[C@@H](CCC(=O)O)C(=O)N[C@@H](Cc1cn(C)c2ccccc12)C(N)=O)[C@@H](C)O, 30-membered ring) is 86%.

In the case of `CC(=O)N[C@H]1CCCCNC(=O)c2ccc(cc2)C#Cc2[nH]c3ccccc3c2C[C@@H](C(=O)O)NC(=O)[C@H](CC(C)C)NC1=O` [Ac-K(EBX)-L-W-OH], the ring closure, isolated yield (from CC(=O)N[C@@H](CCCCNC(=O)c1ccc(C#CI2OC(C(F)(F)F)(C(F)(F)F)c3ccccc32)cc1)C(=O)N[C@@H](CC(C)C)C(=O)N[C@@H](Cc1c[nH]c2ccccc12)C(=O)O, 22-membered ring) came out at 40%.

As for `CC(=O)N[C@H]1CCCCNC(=O)c2ccc(cc2)C#Cc2[nH]c3ccccc3c2C[C@@H](C(=O)O)NC(=O)[C@H](Cc2ccccc2)NC(=O)[C@H](C)NC(=O)[C@H](CO)NC1=O` [Ac-K(EBX)-S-A-F-W-OH], the ring closure, isolated yield (from CC(=O)N[C@@H](CCCCNC(=O)c1ccc(C#CI2OC(C(F)(F)F)(C(F)(F)F)c3ccccc32)cc1)C(=O)N[C@@H](CO)C(=O)N[C@@H](C)C(=O)N[C@@H](Cc1ccccc1)C(=O)N[C@@H](Cc1c[nH]c2ccccc12)C(=O)O, 28-membered ring) stood at 67%.

`CC(=O)N[C@H]1CCCCNC(=O)c2ccc(cc2)C#Cc2[nH]c3ccccc3c2C[C@@H](C(=O)O)NC(=O)[C@H](Cc2ccccc2)NC(=O)[C@H](C)NC(=O)[C@H](CSSC(C)(C)C)NC1=O` [Ac-K(EBX)-C(StBu)-A-F-W-OH]: the ring closure, isolated yield (from CC(=O)N[C@@H](CCCCNC(=O)c1ccc(C#CI2OC(C(F)(F)F)(C(F)(F)F)c3ccccc32)cc1)C(=O)N[C@@H](CSSC(C)(C)C)C(=O)N[C@@H](C)C(=O)N[C@@H](Cc1ccccc1)C(=O)N[C@@H](Cc1c[nH]c2ccccc12)C(=O)O, 28-membered ring) was found to be 25%.

Take `C[C@@H]1NC(=O)[C@H](CC(=O)O)NC(=O)CNC(=O)c2ccc(cc2)C#Cc2[nH]c3ccccc3c2C[C@@H](C(N)=O)NC(=O)[C@H](CCC(=O)O)NC(=O)CNC(=O)[C@H]([C@@H](C)O)NC(=O)[C@H](CCC(=O)O)NC1=O` [EBX-G-D-A-E-T-G-E-W-NH2]: the ring closure, isolated yield (from C[C@H](NC(=O)[C@H](CC(=O)O)NC(=O)CNC(=O)c1ccc(C#CI2OC(C(F)(F)F)(C(F)(F)F)c3ccccc32)cc1)C(=O)N[C@@H](CCC(=O)O)C(=O)N[C@H](C(=O)NCC(=O)N[C@@H](CCC(=O)O)C(=O)N[C@@H](Cc1c[nH]c2ccccc12)C(N)=O)[C@@H](C)O, 33-membered ring) was found to be 47%.

`N=C(N)NCCC[C@@H]1NC(=O)CNC(=O)c2ccc(cc2)C#Cc2[nH]c3ccccc3c2C[C@@H](C(N)=O)NC(=O)[C@H](Cc2ccccc2)NC(=O)[C@H](CC(=O)O)NC(=O)CNC1=O` [EBX-G-R-G-D-F-W-NH2]: the ring closure, isolated yield (from N=C(N)NCCC[C@H](NC(=O)CNC(=O)c1ccc(C#CI2OC(C(F)(F)F)(C(F)(F)F)c3ccccc32)cc1)C(=O)NCC(=O)N[C@@H](CC(=O)O)C(=O)N[C@@H](Cc1ccccc1)C(=O)N[C@@H](Cc1c[nH]c2ccccc12)C(N)=O, 27-membered ring) is 63%.

`CC(=O)N[C@H]1CCCCNC(=O)c2ccc(cc2)C#Cc2[nH]c3ccccc3c2C[C@@H](C(=O)O)NC(=O)[C@H](Cc2ccccc2)NC(=O)[C@H](C)NC(=O)[C@H](CCC(N)=O)NC1=O` [Ac-K(EBX)-Q-A-F-W-OH]: for the setting “from CC(=O)N[C@@H](CCCCNC(=O)c1ccc(C#CI2OC(C(F)(F)F)(C(F)(F)F)c3ccccc32)cc1)C(=O)N[C@@H](CCC(N)=O)C(=O)N[C@@H](C)C(=O)N[C@@H](Cc1ccccc1)C(=O)N[C@@H](Cc1c[nH]c2ccccc12)C(=O)O, 28-membered ring”, the ring closure, isolated yield is 56%.

Consider `N=C(N)NCCC[C@@H]1NC(=O)[C@H](CCCNC(=N)N)NC(=O)[C@H](CCCNC(=N)N)NC(=O)[C@H](CCCNC(=N)N)NC(=O)[C@H](Cc2ccc3ccccc3c2)NC(=O)c2ccc(cc2)C#Cc2[nH]c3ccccc3c2C[C@@H](C(N)=O)NC1=O` [EBX-Nal(2)-R-R-R-R-W-NH2], for which, where the note is “from N=C(N)NCCC[C@H](NC(=O)[C@H](CCCNC(=N)N)NC(=O)[C@H](CCCNC(=N)N)NC(=O)[C@H](CCCNC(=N)N)NC(=O)[C@H](Cc1ccc2ccccc2c1)NC(=O)c1ccc(C#CI2OC(C(F)(F)F)(C(F)(F)F)c3ccccc32)cc1)C(=O)N[C@@H](Cc1c[nH]c2ccccc12)C(N)=O, 27-membered ring”, the ring closure, isolated yield came out at 53%.

Take `CC(=O)N[C@H]1CCCCNC(=O)c2ccc(cc2)C#Cc2[nH]c3ccccc3c2C[C@@H](C(=O)O)NC(=O)[C@H](Cc2ccccc2)NC(=O)[C@H](C)NC(=O)[C@H](CCC(=O)O)NC1=O` [Ac-K(EBX)-E-A-F-W-OH]: the ring closure, isolated yield (from CC(=O)N[C@@H](CCCCNC(=O)c1ccc(C#CI2OC(C(F)(F)F)(C(F)(F)F)c3ccccc32)cc1)C(=O)N[C@@H](CCC(=O)O)C(=O)N[C@@H](C)C(=O)N[C@@H](Cc1ccccc1)C(=O)N[C@@H](Cc1c[nH]c2ccccc12)C(=O)O, 28-membered ring) was found to be 37%.

Regarding `CC[C@H](C)[C@@H]1NC(=O)[C@@H]2CCCN2C(=O)[C@H]([C@@H](C)CC)NC(=O)[C@@H]2CCCN2C(=O)[C@H](Cc2ccccc2)NC(=O)[C@H](C)NC(=O)c2ccc(cc2)C#Cc2[nH]c3ccccc3c2C[C@@H](C(N)=O)NC1=O` [EBX-A-F-P-I-P-I-W-NH2], under “from CC[C@H](C)[C@H](NC(=O)[C@@H]1CCCN1C(=O)[C@@H](NC(=O)[C@@H]1CCCN1C(=O)[C@H](Cc1ccccc1)NC(=O)[C@H](C)NC(=O)c1ccc(C#CI2OC(C(F)(F)F)(C(F)(F)F)c3ccccc32)cc1)[C@@H](C)CC)C(=O)N[C@@H](Cc1c[nH]c2ccccc12)C(N)=O, 30-membered ring”, the ring closure, isolated yield came to 53%.

Regarding `C[C@@H]1NC(=O)[C@H](CC(=O)O)NC(=O)CNC(=O)c2ccc(cc2)C#Cc2c(c3ccccc3n2C)C[C@@H](C(N)=O)NC(=O)[C@H](CCC(=O)O)NC(=O)CNC(=O)[C@H]([C@@H](C)O)NC(=O)[C@H](CCC(=O)O)NC1=O` [EBX-G-D-A-E-T-G-E-W(1-Me)-NH2], the ring closure, isolated yield (from C[C@H](NC(=O)[C@H](CC(=O)O)NC(=O)CNC(=O)c1ccc(C#CI2OC(C(F)(F)F)(C(F)(F)F)c3ccccc32)cc1)C(=O)N[C@@H](CCC(=O)O)C(=O)N[C@H](C(=O)NCC(=O)N[C@@H](CCC(=O)O)C(=O)N[C@@H](Cc1cn(C)c2ccccc12)C(N)=O)[C@@H](C)O, 33-membered ring) turned out to be 61%.

Take `CC(C)C[C@@H]1NC(=O)[C@H](CC(=O)O)NC(=O)[C@H](CC(=O)O)NC(=O)[C@H](Cc2ccccc2)NC(=O)[C@H](Cc2ccccc2)NC(=O)CNC(=O)c2ccc(cc2)C#Cc2[nH]c3ccccc3c2C[C@@H](C(=O)N[C@@H](Cc2ccccc2)C(=O)N[C@H](C(=O)N[C@@H](C)C(N)=O)C(C)C)NC(=O)[C@H](Cc2ccc(O)cc2)NC1=O` [EBX-G-F-F-D-D-L-Y-W-F-V-A-NH2]: for the setting “from CC(C)C[C@H](NC(=O)[C@H](CC(=O)O)NC(=O)[C@H](CC(=O)O)NC(=O)[C@H](Cc1ccccc1)NC(=O)[C@H](Cc1ccccc1)NC(=O)CNC(=O)c1ccc(C#CI2OC(C(F)(F)F)(C(F)(F)F)c3ccccc32)cc1)C(=O)N[C@@H](Cc1ccc(O)cc1)C(=O)N[C@@H](Cc1c[nH]c2ccccc12)C(=O)N[C@@H](Cc1ccccc1)C(=O)N[C@H](C(=O)N[C@@H](C)C(N)=O)C(C)C, 33-membered ring”, the ring closure, isolated yield was 56%.

On to `C[C@@H]1NC(=O)[C@H](CC(=O)O)NC(=O)c2ccc(cc2)C#Cc2[nH]c3ccccc3c2C[C@@H](C(N)=O)NC(=O)[C@H](CCC(=O)O)NC(=O)CNC(=O)[C@H]([C@@H](C)O)NC(=O)[C@H](CCC(=O)O)NC1=O` [EBX-D-A-E-T-G-E-W-NH2], for which the ring closure, isolated yield (from C[C@H](NC(=O)[C@H](CC(=O)O)NC(=O)c1ccc(C#CI2OC(C(F)(F)F)(C(F)(F)F)c3ccccc32)cc1)C(=O)N[C@@H](CCC(=O)O)C(=O)N[C@H](C(=O)NCC(=O)N[C@@H](CCC(=O)O)C(=O)N[C@@H](Cc1c[nH]c2ccccc12)C(N)=O)[C@@H](C)O, 30-membered ring) stood at 49%.

In the case of `C#CC[C@@H]1NC(=O)[C@@H](NC(C)=O)CCCCNC(=O)c2ccc(cc2)C#Cc2[nH]c3ccccc3c2C[C@@H](C(=O)O)NC(=O)[C@H](Cc2ccccc2)NC(=O)[C@H](C)NC1=O` [Ac-K(EBX)-Pra-A-F-W-OH], the ring closure, isolated yield (from C#CC[C@H](NC(=O)[C@H](CCCCNC(=O)c1ccc(C#CI2OC(C(F)(F)F)(C(F)(F)F)c3ccccc32)cc1)NC(C)=O)C(=O)N[C@@H](C)C(=O)N[C@@H](Cc1ccccc1)C(=O)N[C@@H](Cc1c[nH]c2ccccc12)C(=O)O, 28-membered ring) was 57%.
